In PubChem BioAssay (NCI):
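Cells were grown in 96-well plates and exposed to each compound for 48 hours at five concentrations; endpoints were interpolated linearly between bracketing concentrations, or set to the highest concentration if not reached. GI50 marks 50% less growth. TGI: concentration producing complete growth inhibition.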

Experiments:
Experiment in all cases: growth of human tumour cells (NCI), 48 h
[1] = system: ACHN renal
[2] = system: HOP-92 NSCLC
[3] = system: SF-539 CNS
[4] = system: SNB-75 CNS
[5] = system: SK-MEL-2 melanoma
[6] = system: HS 578T breast
[7] = system: NCI-H522 lung
[8] = system: SK-OV-3 ovarian
[9] = system: EKVX NSCLC
[10] = system: HT29 colon
[11] = system: UACC-62 melanoma
[12] = system: OVCAR-4 ovarian
[13] = system: MDA-MB-231 breast
[14] = system: NCI-H23 lung
[15] = system: COLO 205 colon
[16] = system: M14 melanoma
[17] = system: OVCAR-5 ovarian
[18] = system: U251 CNS
[19] = system: SN12C renal
[20] = system: DU-145 prostate
[21] = system: KM12 colon
[22] = system: MDA-MB-468 breast
[23] = system: 786-0 renal
[24] = system: OVCAR-3 ovarian
[25] = system: HCT-116 colon
[26] = system: NCI/ADR-RES ovarian
[27] = system: SW-620 colon
[28] = system: UO-31 renal
[29] = system: NCI-H460 lung
[30] = system: SF-268 CNS
[31] = system: MALME-3M melanoma
[32] = system: RPMI-8226 leukemia
[33] = system: SR leukemia
[34] = system: HCT-15 colon
[35] = system: A549 NSCLC
[36] = system: OVCAR-8 ovarian
[37] = system: LOX IMVI melanoma
[38] = system: TK-10 renal
[39] = system: BT-549 breast
[40] = system: HCC-2998 colon
[41] = system: IGROV1 ovarian
[42] = system: CAKI-1 renal
[43] = system: NCI-H226 lung
[44] = system: SNB-19 CNS
[45] = system: PC-3 prostate
[46] = system: SK-MEL-5 melanoma
[47] = system: MDA-MB-435
[48] = system: UACC-257 melanoma
[49] = system: HL-60(TB) leukemia
[50] = system: CCRF-CEM leukemia
[51] = system: K-562 leukemia
[52] = system: SK-MEL-28 melanoma
[53] = system: RXF 393 renal
[54] = system: HOP-62 NSCLC
[55] = system: MCF7 breast
[56] = system: MOLT-4 leukemia
[57] = system: A498 renal
[58] = system: T-47D breast
[59] = system: SF-295 CNS

CN(C)c1ccc(/C=C/c2n(Cc3ccc4ccccc4c3)c3ccccc3[n+]2Cc2ccc3ccccc3c2)cc1
GI50 [1]: 326 nM
TGI [1]: 1210 nM
GI50 [2]: 162 nM
TGI [2]: 600 nM
GI50 [3]: 346 nM
TGI [3]: 1330 nM
GI50 [4]: 240 nM
TGI [4]: 1140 nM
GI50 [5]: 271 nM
TGI [5]: 770 nM
GI50 [6]: 270 nM
TGI [6]: 1420 nM
GI50 [7]: 246 nM
TGI [7]: 737 nM
GI50 [8]: 280 nM
TGI [8]: 1090 nM
GI50 [9]: 252 nM
TGI [9]: 905 nM
GI50 [10]: 235 nM
TGI [10]: 1340 nM
GI50 [11]: 281 nM
TGI [11]: 1020 nM
GI50 [12]: 342 nM
TGI [12]: 1650 nM
GI50 [13]: 292 nM
TGI [13]: 998 nM
GI50 [14]: 250 nM
TGI [14]: 752 nM
GI50 [15]: 211 nM
TGI [15]: 434 nM
GI50 [16]: 369 nM
TGI [16]: 1530 nM
GI50 [17]: 360 nM
TGI [17]: 1410 nM
GI50 [18]: 166 nM
TGI [18]: 1270 nM
GI50 [19]: 286 nM
TGI [19]: 1070 nM
GI50 [20]: 354 nM
TGI [20]: 1420 nM
GI50 [21]: 315 nM
TGI [21]: 1300 nM
GI50 [22]: 165 nM
TGI [22]: 731 nM
GI50 [23]: 287 nM
TGI [23]: 1440 nM
GI50 [24]: 267 nM
TGI [24]: 1250 nM
GI50 [25]: 218 nM
TGI [25]: 1300 nM
GI50 [26]: 1320 nM
TGI [26]: 3460 nM
GI50 [27]: 319 nM
TGI [27]: 1310 nM
GI50 [28]: 530 nM
TGI [28]: 1840 nM
GI50 [29]: 260 nM
TGI [29]: 1130 nM
GI50 [30]: 383 nM
TGI [30]: 1630 nM
GI50 [31]: 249 nM
TGI [31]: 740 nM
GI50 [32]: 237 nM
TGI [32]: 1130 nM
GI50 [33]: 399 nM
TGI [33]: 2300 nM
GI50 [34]: 458 nM
TGI [34]: 1740 nM
GI50 [35]: 317 nM
TGI [35]: 1520 nM
GI50 [36]: 312 nM
TGI [36]: 1350 nM
GI50 [37]: 269 nM
TGI [37]: 999 nM
GI50 [38]: 416 nM
TGI [38]: 1680 nM
GI50 [39]: 187 nM
TGI [39]: 809 nM
GI50 [40]: 325 nM
TGI [40]: 1330 nM
GI50 [41]: 382 nM
TGI [41]: 1530 nM
GI50 [42]: 331 nM
TGI [42]: 1310 nM
GI50 [43]: 257 nM
TGI [43]: 1010 nM
GI50 [44]: 296 nM
TGI [44]: 1190 nM
GI50 [45]: 250 nM
TGI [45]: 1250 nM
GI50 [46]: 181 nM
TGI [46]: 346 nM
GI50 [47]: 338 nM
TGI [47]: 1240 nM
GI50 [48]: 265 nM
TGI [48]: 919 nM
GI50 [49]: 228 nM
TGI [49]: 795 nM
GI50 [50]: 315 nM
TGI [50]: 1410 nM
GI50 [51]: 228 nM
TGI [51]: > 22900 nM
GI50 [52]: 491 nM
TGI [52]: 1710 nM
GI50 [53]: 231 nM
TGI [53]: 1020 nM
GI50 [54]: 351 nM
TGI [54]: 1410 nM
GI50 [55]: 281 nM
TGI [55]: 1100 nM
GI50 [56]: 303 nM
TGI [56]: 1660 nM
GI50 [57]: 269 nM
TGI [57]: 1150 nM
GI50 [58]: 294 nM
TGI [58]: 1500 nM
GI50 [59]: 266 nM
TGI [59]: 996 nM
